The text below walks through data of ChEMBL document CHEMBL4257227, “Deubiquitinase inhibitors and methods for use of the same” (2016).

A short description of series [1]: Plasma concentration in Balb/c mouse at 10 mg/kg, po after 7 hrs by LC-MS analysis. The series is classed as ADME, organism-based.
Series [2] is described as follows: AUClast in Balb/c mouse at 10 mg/kg, po by LC-MS analysis. The series is classed as ADME, organism-based. Details: dose 10 mg/kg, route oral, time 0 - last. To be noted: in vivo.
Series [3] can be described thus: Plasma concentration in Balb/c mouse at 10 mg/kg, po after 4 hrs by LC-MS analysis. The class given is ADME, organism-based.
The nature of series [4]: Plasma concentration in Balb/c mouse at 5 mg/kg, iv after 7 hrs by LC-MS analysis. The class given is ADME, organism-based.
Series [5] is described as follows: Plasma concentration in Balb/c mouse at 5 mg/kg, iv after 4 hrs by LC-MS analysis. The series is classed as ADME, organism-based.
Series [6] can be described thus: Plasma concentration in Balb/c mouse at 5 mg/kg, iv after 0.5 hrs by LC-MS analysis. The series is classed as ADME, organism-based.
A short description of series [7]: Plasma concentration in Balb/c mouse at 10 mg/kg, po after 2 hrs by LC-MS analysis. The series is classed as ADME, organism-based.
Series [8] can be described thus: AUClast in Balb/c mouse at 5 mg/kg, iv by LC-MS analysis. The class given is ADME, organism-based. Details: dose 5 mg/kg, time 0 - last, route intravenous. Particulars: in vivo.
Series [9] is described as follows: Half life in ip dosed Balb/c mouse by LC-MS analysis. To be noted: in vivo. The series is classed as ADME, organism-based.
Series [10] in a line: Plasma concentration in Balb/c mouse at 10 mg/kg, po after 0.5 hrs by LC-MS analysis. The series is classed as ADME, organism-based.
A short description of series [11]: Plasma concentration in Balb/c mouse at 5 mg/kg, iv after 2 hrs by LC-MS analysis. The class given is ADME, organism-based.
Series [12] relates to A-375. Briefly: Induction of apoptosis in human A375 cells with USP5 and p53 knock down assessed as increase in Bax protein expression. The class given is functional, cell-based.
The test system of series [13] is SK-MEL19. The experiment in a line: Increase in FAS protein expression in human SK-MEL-19 cells after 24 hrs. The class given is functional, cell-based.
For series [14], the system named is A-375. The experiment in a line: Induction of apoptosis in human A375 cells with USP5 and p53 knock down assessed as increase in FAS protein expression. The series is classed as functional, cell-based.
Series [15] has as its system A-375. Briefly: Induction of apoptosis in human A375 cells with USP5 and p53 knock down assessed as increase in Bid protein expression. The class given is functional, cell-based.
Series [16] concerns SK-MEL19. The experiment in a line: Induction of apoptosis in human SK-MEL-19 cells assessed as increase in caspase 8 cleavage after 48 to 72 hrs. The class given is functional, cell-based.
Series [17] relates to A-375. The experiment in a line: Induction of apoptosis in human A375 cells with USP5 knock down assessed as increase in Bid protein expression. The series is classed as functional, cell-based.
Series [18] has as its system SK-MEL19. Briefly: Increase in protein ubiquitination in human SK-MEL-19 cells after 24 hrs. The series is classed as functional, cell-based.
For series [19], the system named is SK-MEL19. Briefly: Increase in FASBax protein expression in human SK-MEL-19 cells after 24 hrs. The class given is functional, cell-based.
Series [20] deals with A-375. Briefly: Induction of apoptosis in human A375 cells with USP5 knock down assessed as increase in p53 protein expression. The series is classed as functional, cell-based.
The subject of series [21] is SK-MEL19. The experiment in a line: Reduction in DRS levels in human SK-MEL-19 cells. The series is classed as functional, cell-based.
Series [22] has as its system A-375. The experiment in a line: Induction of apoptosis in human A375 cells with USP5 and p53 knock down assessed as increase in PARP cleavage. The class given is functional, cell-based.
Series [23] relates to A-375. The experiment in a line: Induction of apoptosis in human A375 cells with USP5 knock down assessed as increase in FAS protein expression. The series is classed as functional, cell-based.
Series [24] has as its system A-375. The experiment in a line: Induction of apoptosis in human A375 cells with USP5 knock down assessed as increase in Bax protein expression. The class given is functional, cell-based.
Series [25] relates to A-375. The experiment in a line: Induction of apoptosis in human A375 cells with USP5 knock down by annexin V staining based flow cytometry. The class given is functional. (In general: Flow cytometry measures light scatter and fluorescence of single cells or particles in a stream.)
In series [26] the test system is SK-MEL19. Briefly: Induction of apoptosis in human SK-MEL-19 cells assessed as increase in Bid protein level after 48 to 72 hrs. The class given is functional, cell-based.
For series [27], the system named is A-375. The experiment in a line: Induction of apoptosis in human A375 cells with USP5 and p53 knock down assessed as increase in p53 protein expression. The series is classed as functional, cell-based.
The subject of series [28] is A-375. The experiment in a line: Ratio of IC50 for human A375 cells with USP5 knock down to IC50 for human A375 cells. The series is classed as functional.
Series [29] relates to A-375. Briefly: Induction of apoptosis in human A375 cells with USP5 knock down assessed as increase in PARP cleavage. The class given is functional, cell-based.
In series [30] the test system is SK-MEL19. The experiment in a line: Induction of apoptosis in human SK-MEL-19 cells assessed as increase in PARP cleavage after 48 to 72 hrs. The class given is functional, cell-based.
The subject of series [31] is A-375. Briefly: Induction of FAS protein expression in Vemurafenib resistant human A375 cells. The series is classed as functional, cell-based.

Active and inactive are the calls of the source. No cut-off for these calls is given here.

With `CCCC(NC(=O)/C(C#N)=C/c1ccc2cccnc2n1)c1ccccc1` (stereo unspecified), the values for the concentration at 7 h in series [1] and in series [4] were 11.4 to 15.9 ng/mL and 33.7 to 71.4 ng/mL, respectively. In addition, the AUC(0-t) in [2] was 126 to 280 ng·h/mL; in [8] it was 692 to 993 ng·h/mL. Also, the concentration at 4 h in series [3] was 13.3 to 30 ng/mL; in series [5], 33.4 to 63.1 ng/mL. Also, the concentration at 0.5 h in [6] was 301 to 397 ng/mL; in series [10] it was 50.8 to 117 ng/mL. The concentration at 2 h in series [7] fell in the range of 10.6 to 40.6 ng/mL; in series [11], 79.6 to 99.1 ng/mL. Moreover, the half-life in series [9] lay in the range of 30 to 60 min.
Consider `CCCS(=O)(=O)Nc1ccc(F)c(C(=O)c2c[nH]c3ncc(-c4ccc(Cl)cc4)cc23)c1F` [VEMURAFENIB], for which the outcome in the series on A-375 [12], in the series on A-375 [14], with A-375 [15], in the series on A-375 [22], in the series with A-375 [27] and in the series on A-375 [31] was inactive. Moreover, the outcome in the series on SK-MEL19 [13], in the series with SK-MEL19 [16], with A-375 [17], in the series on SK-MEL19 [18], with SK-MEL19 [19] and with A-375 [20] was Active. The result in the series with SK-MEL19 [21], with A-375 [23], in the series on A-375 [24], in the series with SK-MEL19 [26], in the series with A-375 [29] and with SK-MEL19 [30] was Active. The “fold change (FC)” value in the series on A-375 [25] is more than 3. Also, in the series with A-375 [28], the “Ratio IC50” value is 2.

For orientation: AUC(0-t) means exposure summed from dosing to a finite time, without extrapolation to infinity. A high value points to high exposure. One may read the half-life as how long it takes for the measured level to halve.
